Here are results for three compounds from paper PMC7035293, “Structural ensemble of a glutamate transporter homologue in lipid nanodisc environment” (Nature Communications, 2020).

Broadly, the stoichiometry N is a count of units in the complex or per binding partner.

In one assay the target is T1, GltTk (Thermococcus kodakarensis, UniProt Q5JID0).
T1 construct: gene TK0986; C-terminal His8 tag, expressed in E. coli MC1061 (pBAD24-derived plasmid), purified apo, reconstituted in MSP2N2 lipid nanodiscs; homotrimer
T1 sequence (Q5JID0 entry or part of it): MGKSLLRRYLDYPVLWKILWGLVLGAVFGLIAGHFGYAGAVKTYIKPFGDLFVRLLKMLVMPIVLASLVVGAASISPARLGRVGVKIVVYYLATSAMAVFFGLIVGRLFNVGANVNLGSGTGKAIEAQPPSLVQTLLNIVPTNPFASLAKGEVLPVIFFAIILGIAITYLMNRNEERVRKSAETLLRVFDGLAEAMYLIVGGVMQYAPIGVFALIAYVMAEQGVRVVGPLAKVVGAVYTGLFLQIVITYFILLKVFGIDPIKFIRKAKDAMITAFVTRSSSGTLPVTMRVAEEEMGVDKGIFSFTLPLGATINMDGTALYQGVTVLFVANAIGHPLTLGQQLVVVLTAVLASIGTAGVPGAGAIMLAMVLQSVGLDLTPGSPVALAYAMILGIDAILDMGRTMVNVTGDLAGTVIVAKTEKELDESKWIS
Description: cryo-EM structure of the complex in lipid nanodiscs. To be noted: 300 mM Na+, aspartate binding site.

Assay [1] deals with glutamate transporter homologue GltTk from Thermococcus kodakarensis (Thermococcus kodakarensis) (UniProt Q5JID0). Description: cryo-EM structure; GltTk in MSP2N2 nanodiscs (E. coli polar lipids:egg PC 3:1 w/w), 20 mM Tris-HCl pH 8.0, 300 mM NaCl; five structures: Na+-only, L-aspartate unsaturated (two structures), L-aspartate saturated, 120 uM DL-TBOA; 200 keV Talos Arctica.

Turning to `NC(C(=O)O)C(OCc1ccccc1)C(=O)O` (racemic) [DL-TBOA], the “cryo-EM structure of the complex in lipid nanodiscs” value on GltTk (pH 8.0, 120 uM DL-TBOA with 4.5 uM nanodiscs, competitive, outward-open state, two of three protomers occupied) is reported as “The fully-outward protomers have wide open HP2 gates”.
For the compound `N[C@@H](CC(=O)O)C(=O)O` [L-aspartate], the “cryo-EM structure of the complex in lipid nanodiscs” value on GltTk (pH 8.0, 50 uM L-aspartate with 5.6 uM nanodiscs, intermediate-outward occluded state, also sub-saturating structures 6XWO and 6XWP) was “density for the amino acid substrate in the binding site is observed”.
Take “glutamate transporter homologue GltTk from Thermococcus kodakarensis (from UniProt Q5JID0 1-430) (natural protein)”: the stoichiometry N in assay [1] is 3.
